Results as given in patent US20060148030A1, “Nuclear receptor err y 3” (FUJISAWA PHARMACEUTICAL CO., LTD, priority 2002, published 2006).

System: ERRγ2
Assay: Reporter gene assay, ERRγ3 coexisted with ERRγ2, ERE luciferase reporter in CV-1 cells
Format: cell-based, human
Details: FIG. 15
Protocol: The reporter gene assay was performed using CV-1 cells (African green monkey kidney-derived cell line) as hosts. Host cells were transfected with luciferase reporter plasmids and expression plasmids for ERRγ3, ERRγ2, or both. They were then exposed to 4-hydroxytamoxifen at different concentrations (0, 10^−10 to −10^−5 M) for 24 hours, whereupon luciferase activity within the cells was measured.
Transfection was performed as follows: CV-1 cells were suspended at 2×10^5 cells/2.5 ml in DMEM medium supplemented with 10% fetal bovine serum, 2000 U/l of penicillin G, and 100 mg/l streptomycin. These cells were seeded to a 6-well plate at 2.5 ml/well, and cultured for 18 to 24 hours in a CO2 incubator at 37° C. in the presence of 5% CO2. 1 μg of each of the transcription factor expression plasmid, the luciferase reporter plasmid, and another luciferase reporter plasmid for normalizing the measured value (pRL-TK), were dissolved in Opti-MEM (Gibco BRL) to total of 150 μl. 7 μl of the cell transfection reagent LipofectAMINE 2000 (Gibco BRL) was diluted in 143 μl of Opti-MEM, and this was added to the mixture drop by drop while stirring. […]
Luciferase activity was measured using the Dual-Luciferase™ Reporter Assay System (Promega). […] The protocol for measurement was as follows: 50 μl of Luciferase Assay Reagent II was added to each well, stirred for 0.3 seconds and measured for one second.

Chain of ERRγ2 (P62508 whole entry): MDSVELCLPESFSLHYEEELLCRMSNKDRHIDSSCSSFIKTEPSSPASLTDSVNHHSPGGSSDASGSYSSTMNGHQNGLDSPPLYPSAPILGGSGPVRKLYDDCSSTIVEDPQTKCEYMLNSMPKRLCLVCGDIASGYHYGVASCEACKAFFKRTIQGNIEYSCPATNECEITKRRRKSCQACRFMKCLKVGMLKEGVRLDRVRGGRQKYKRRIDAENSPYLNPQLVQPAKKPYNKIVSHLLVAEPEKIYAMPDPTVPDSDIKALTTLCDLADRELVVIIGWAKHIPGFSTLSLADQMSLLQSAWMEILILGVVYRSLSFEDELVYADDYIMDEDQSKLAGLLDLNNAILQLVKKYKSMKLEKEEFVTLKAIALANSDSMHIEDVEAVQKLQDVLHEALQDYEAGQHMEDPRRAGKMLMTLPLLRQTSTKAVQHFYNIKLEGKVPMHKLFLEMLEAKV

Row | Molecule | 4-hydroxytamoxifen concentration at which the enhancing function of ERRγ3 on ERRγ2 was reduced (CV-1 cells, 24 hours exposure) | enhancement of the transcriptional activation function of ERRγ2 (ERRγ3 coexisted with ERRγ2, CV-1 cells, ERE luciferase reporter)
1 | 4-hydroxytamoxifen [reference compound] | ≥ 10^−6 M | –
2 | ERRγ3: novel ERRγ isoform, nuclear receptor protein of 396 amino acids (SEQ ID NO: 2) lacking part of the DNA binding domain (protein, listed as Homo sapiens) MSNKDRHIDSSCSSFIKTEPSSPASLTDSVNHHSPGGSSDASGSYSSTMNGHQNGLDSPPLYPSAPILGGSGPVRKLYDDCSSTIVEDPQTKCEYMLNSMPKRLCLVCGDIASGYHYGVASCEACKAFFKRTIQGVRLDRVRGGRQKYKRRIDAENSPYLNPQLAQPAKKPYNKIVSHLLVAEPEKIYAMPDPTVPDSDIKALTTLCDLADRELVVIIGWAKHIPGFSTLSLADQMSLLQSAWMEILILGVVYRSLSFEDELVYADDYIMDEDQSKLAGLLDLNNAILQLVKKYKSMKLEKEEFVTLKAIALANSDSMHIEDVEAVQKLQDVLHEALQDYEAGQHMEDPRRAGKMLMTLPLLRQTSTKAVQHFYNIKLEGKVPMHKLFLEMLEAKV | – | 53-68%
